# Test results reported in publication PMC9919591, “New Triazine Derivatives as Serotonin 5-HT6 Receptor Ligands” (Molecules, 2023).
# Experiments:
# [1] = biological target: T1, human 5-HT2AR (Homo sapiens, UniProt P28223); assay: Radioligand binding assay, 5-HT2AR ([3H]-ketanserin); conditions: CHO-K1 cells stably expressing human 5-HT2AR
# T1 construct: expressed in transfected cells; host or cells: CHO-K1
# Method: (§1) Affinity for serotonin 5-HT2A, 5-HT7 and dopamine D2 receptors (D2R) as protein off-targets was evaluated in the radioligand binding assays. In CHO-K1 cells, it was stably expressed human 5-HT2AR, whereas human 5-HT7R and D2R were stably expressed in HEK293 cells. […] A particularly weak affinity towards this receptor was shown through compounds of series 1 (compounds 1–7) and series 2 (compounds 8–13). […]. Radioligand binding assays were used to determine the affinity of the synthesized compounds for human serotonin 5-HT6R, 5-HT2AR, 5-HT7R and dopamine D2R, which were stably expressed in HEK293 cells or CHOk1 cells (5-HT2AR). This was done as described previously.
# [2] = system: HepG2 cells; assay: Hepatotoxicity, MTS assay on HepG2 cells; type: cell-based, human
# Method: Some substances can lead to liver damage. To eliminate this risk, hepatotoxicity tests are carried out as early as the pre-clinical development phase. One of the methods commonly used to assess the adverse effect of tested compounds on cell viability is the MTT assay, and the most popular cell lines are HepG2 and HepaRG (the human hepatocellular carcinoma cells). To evaluate the toxic effect of compound 3, the MTS assay (one-step MTT assay variant) was performed on the HepG2 cells. HepG2 cells were incubated with increasing concentrations (0.78–50 µM) of compound 3 for 48 h. After that time, the MTS reagent was added and incubated for 1 h. Next the absorbance was read at 490 nm.
# The hepatoma cell line HepG2 (ATCC® HB-8065TM) was used to assess the hepatotoxicity of the compounds according to previously described protocols. The CellTiter 96® AQueous Non-Radioactive Cell Proliferation Assay was purchased from Promega (Madison, WI, USA). Compound 3 was tested in two independent experiments in triplicate at seven concentrations (0.78, 1.56, 3.125, 6.25, 12.5, 25 and 50 µM) for […].
# [3] = PAMPA assay (BBB penetration, passive transport); type: in vitro ADME; conditions: study a
# Text: This test is a very popular method for assessing BBB penetration via passive transport.
# [4] = biological target: T2, human 5-HT7R (Homo sapiens, UniProt P34969); assay: Radioligand binding assay, 5-HT7R ([3H]-5-CT)
# T2 construct: expressed in transfected cells; host or cells: HEK293
# T2 sequence (P34969 whole entry): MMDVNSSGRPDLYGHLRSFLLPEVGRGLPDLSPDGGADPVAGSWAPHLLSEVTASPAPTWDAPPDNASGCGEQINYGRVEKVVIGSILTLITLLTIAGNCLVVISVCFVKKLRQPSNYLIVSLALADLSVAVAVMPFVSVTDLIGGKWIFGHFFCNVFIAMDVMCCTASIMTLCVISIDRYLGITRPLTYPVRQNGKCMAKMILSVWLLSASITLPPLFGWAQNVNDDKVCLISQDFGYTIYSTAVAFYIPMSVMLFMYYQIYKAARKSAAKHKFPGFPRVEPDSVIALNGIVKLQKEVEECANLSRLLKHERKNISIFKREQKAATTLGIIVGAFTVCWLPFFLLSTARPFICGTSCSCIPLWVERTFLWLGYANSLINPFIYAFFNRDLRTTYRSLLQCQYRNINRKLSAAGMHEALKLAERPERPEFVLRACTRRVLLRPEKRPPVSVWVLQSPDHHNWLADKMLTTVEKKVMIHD
# Method: as §1
# [5] = biological target: T3, human D2R (Homo sapiens, UniProt P14416); assay: Radioligand binding assay, D2R ([3H]-raclopride); conditions: HEK293 cells stably expressing human D2R
# T3 construct: expressed in transfected cells; host or cells: HEK293
# T3 sequence (P14416 whole entry): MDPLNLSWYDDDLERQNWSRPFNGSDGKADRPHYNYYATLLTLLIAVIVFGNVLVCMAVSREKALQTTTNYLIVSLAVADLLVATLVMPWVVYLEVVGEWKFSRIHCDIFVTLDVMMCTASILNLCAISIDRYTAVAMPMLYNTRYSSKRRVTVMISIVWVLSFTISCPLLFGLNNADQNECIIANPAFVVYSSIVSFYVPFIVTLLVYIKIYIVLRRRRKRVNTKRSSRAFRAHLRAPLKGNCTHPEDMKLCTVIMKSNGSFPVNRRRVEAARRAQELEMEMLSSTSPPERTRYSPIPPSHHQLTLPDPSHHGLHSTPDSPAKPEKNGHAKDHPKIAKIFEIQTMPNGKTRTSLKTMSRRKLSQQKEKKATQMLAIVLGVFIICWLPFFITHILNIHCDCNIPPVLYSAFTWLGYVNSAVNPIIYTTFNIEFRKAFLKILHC
# Method: as §1
# [6] = biological target: T4, human 5-HT6R (Homo sapiens, UniProt P50406); assay: Radioligand binding assay, 5-HT6R ([3H]-LSD); conditions: [3H]-LSD; HEK293 cells stably expressing human 5-HT6R; average of at least two independent experiments
# T4 construct: expressed in transfected cells; host or cells: HEK293
# T4 sequence (P50406 whole entry): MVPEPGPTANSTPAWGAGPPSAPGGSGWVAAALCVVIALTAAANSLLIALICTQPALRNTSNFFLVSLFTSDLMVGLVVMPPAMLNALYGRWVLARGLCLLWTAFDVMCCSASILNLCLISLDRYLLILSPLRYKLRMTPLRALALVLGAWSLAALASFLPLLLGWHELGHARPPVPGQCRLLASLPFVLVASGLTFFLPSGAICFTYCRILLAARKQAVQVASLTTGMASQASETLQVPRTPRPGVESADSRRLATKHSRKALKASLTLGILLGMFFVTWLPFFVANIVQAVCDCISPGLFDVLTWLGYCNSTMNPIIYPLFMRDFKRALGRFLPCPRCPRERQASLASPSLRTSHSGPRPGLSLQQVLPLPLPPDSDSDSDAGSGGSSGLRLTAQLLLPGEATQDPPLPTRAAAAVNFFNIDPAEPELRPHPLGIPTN
# Method: The affinity of compounds (1–25) for 5-HT6R was evaluated in the radioligand binding assay in HEK293 cells stably expressing human 5-HT6R. [^3H]-LSD as a radioligand was used. […] All results are collected in Table 1, Table 2 and Table 3.
# Radioligand binding assays were used to determine the affinity of the synthesized compounds for human serotonin 5-HT6R, 5-HT2AR, 5-HT7R and dopamine D2R, which were stably expressed in HEK293 cells or CHOk1 cells (5-HT2AR). This was done as described previously.
# T1 sequence (P28223 whole entry): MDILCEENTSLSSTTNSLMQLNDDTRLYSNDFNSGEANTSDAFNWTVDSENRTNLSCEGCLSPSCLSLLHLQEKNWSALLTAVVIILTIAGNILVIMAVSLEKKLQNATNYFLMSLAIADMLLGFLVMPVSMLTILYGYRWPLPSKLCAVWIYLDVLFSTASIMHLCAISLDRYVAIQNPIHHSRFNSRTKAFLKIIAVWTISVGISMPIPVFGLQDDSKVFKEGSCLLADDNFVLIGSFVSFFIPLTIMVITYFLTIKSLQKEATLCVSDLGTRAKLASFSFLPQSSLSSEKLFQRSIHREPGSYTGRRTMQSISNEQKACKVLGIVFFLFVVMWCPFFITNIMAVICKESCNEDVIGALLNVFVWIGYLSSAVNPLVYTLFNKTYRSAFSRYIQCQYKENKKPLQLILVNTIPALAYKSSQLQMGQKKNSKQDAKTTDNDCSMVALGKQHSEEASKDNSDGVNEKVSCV
structure (smiles),measurement,setting,value
"CN1CCN(c2nc(N)nc(COc3ccccc3C(C)(C)C)n2)CC1 [Compound 3, 4-((2-(tert-Butyl)phenoxy)metyl)-6-(4-methylpiperazin-1-yl)-1,3,5-triazin-2-amine]",Ki,[1],2.18 µM
same,hepatotoxicity (conclusion in words),"[2]; HepG2, MTS assay",moderate hepatotoxicity
same,IC50,"[2]; Homo sapiens, HepG2, MTS assay, 0.78–50 µM, 48 h incubation (72 h elsewhere in the source), read-out: IC50 (HepG2 cells' viability)",46.6 µM
same,Pe ± SD,[3],4.7 ×10⁻⁶ cm/s
same,Papp,[3]; read-out: Pe ± SD,4.7 ± 0.2 ×10⁻⁶ cm/s
same,Ki,[4]; HEK293 cells stably expressing human 5-HT7R,6.34 µM
same,Ki,[4]; compound 3 and its salts,6.34 µM
same,Ki,[5],1.62 µM
same,melting point,,107 to 109 °C
same,Ki,[6],0.013 µM
